Assay results as given in ChEMBL document CHEMBL3045290, “Novel salicylamide derivatives incorporating neonicotinoid pharmacophore: design, synthesis, characterization, and biological evaluation” (2013).

Experiments:
Format in all cases: functional
[1] = tested on: Plutella xylostella; assay: Insecticidal activity against Plutella xylostella (diamondback moth) fed on artificial diet containing compound assessed as mortality at 31.25 ug/ml after 96 hr
[2] = tested on: Helicoverpa armigera; assay: Insecticidal activity against Helicoverpa armigera fed on artificial diet containing compound assessed as mortality at 250 ug/ml after 96 hr
[3] = tested on: Helicoverpa armigera; assay: Insecticidal activity against Helicoverpa armigera fed on artificial diet containing compound assessed as mortality at 1000 ug/ml after 96 hr
[4] = tested on: Helicoverpa armigera; assay: Insecticidal activity against Helicoverpa armigera fed on artificial diet containing compound assessed as mortality at 125 ug/ml after 96 hr
[5] = tested on: Helicoverpa armigera; assay: Insecticidal activity against Helicoverpa armigera fed on artificial diet containing compound assessed as mortality at 31.25 ug/ml after 96 hr
[6] = tested on: Plutella xylostella; assay: Insecticidal activity against Plutella xylostella (diamondback moth) fed on artificial diet containing compound assessed as mortality at 500 ug/ml after 96 hr
[7] = tested on: Plutella xylostella; assay: Insecticidal activity against Plutella xylostella (diamondback moth) fed on artificial diet containing compound assessed as mortality at 125 ug/ml after 96 hr
[8] = tested on: Plutella xylostella; assay: Insecticidal activity against Plutella xylostella (diamondback moth) fed on artificial diet containing compound assessed as mortality at 62.5 ug/ml after 96 hr
[9] = tested on: Plutella xylostella; assay: Insecticidal activity against Plutella xylostella (diamondback moth) fed on artificial diet containing compound assessed as mortality at 1000 ug/ml after 96 hr
[10] = tested on: Plutella xylostella; assay: Insecticidal activity against Plutella xylostella (diamondback moth) fed on artificial diet containing compound assessed as mortality at 250 ug/ml after 96 hr
[11] = tested on: Helicoverpa armigera; assay: Insecticidal activity against Helicoverpa armigera fed on artificial diet containing compound assessed as mortality at 500 ug/ml after 96 hr
[12] = tested on: Helicoverpa armigera; assay: Insecticidal activity against Helicoverpa armigera fed on artificial diet containing compound assessed as mortality at 62.5 ug/ml after 96 hr

SMILES | mortality at 31.25 µg/mL [1] | mortality at 250 µg/mL [2] | mortality at 1000 µg/mL [3] | mortality at 125 µg/mL [4] | mortality at 31.25 µg/mL [5] | mortality at 500 µg/mL [6] | mortality at 125 µg/mL [7] | mortality at 62.5 µg/mL [8] | mortality at 1000 µg/mL [9] | mortality at 250 µg/mL [10] | mortality at 500 µg/mL [11] | mortality at 62.5 µg/mL [12]
Cc1ccccc1NC(=O)c1ccccc1OCc1ccc(Cl)nc1 | 0% | 0% | 0% | 0% | 0% | 0% | 0% | 0% | 0% | 0% | 0% | 0%
O=C(Nc1ccc(F)cc1)c1ccccc1OCc1ccc(Cl)nc1 | 0% | 41% | 41% | 41% | 0% | 81% | 41% | 0% | 100% | 41% | 41% | 0%
CC(C)N(C(=O)c1ccccc1OCc1ccc(Cl)nc1)C(C)C | 0% | 41% | 100% | 41% | 0% | 100% | 41% | 0% | 100% | 100% | 100% | 0%
O=C(Nc1cc(C(F)(F)F)cc(C(F)(F)F)c1)c1ccccc1OCc1ccc(Cl)nc1 | 0% | 0% | 0% | 0% | 0% | 0% | 0% | 0% | 0% | 0% | 0% | 0%
COc1ccc(NC(=O)c2ccccc2OCc2ccc(Cl)nc2)cc1 | 41% | 0% | 0% | 0% | 0% | 100% | 100% | 81% | 100% | 100% | 0% | 0%
Cc1cc(Cl)ccc1NC(=O)c1ccccc1OCc1ccc(Cl)nc1 | 0% | 41% | 100% | 0% | 0% | 41% | 41% | 0% | 100% | 41% | 41% | 0%
O=C(Nc1ccccn1)c1ccccc1OCc1ccc(Cl)nc1 | 0% | 0% | 0% | 0% | 0% | 41% | 0% | 0% | 100% | 41% | 0% | 0%
O=C(Nc1cc(Cl)c(OC(F)(F)C(F)F)c(Cl)c1)c1ccccc1OCc1ccc(Cl)nc1 | 41% | 41% | 100% | 0% | 0% | 100% | 100% | 41% | 100% | 100% | 41% | 0%
O=C(Nc1ccccc1)c1ccccc1OCc1ccc(Cl)nc1 | 0% | 0% | 0% | 0% | 0% | 81% | 41% | 0% | 81% | 41% | 0% | 0%
O=C(NC1CCCCC1)c1ccccc1OCc1ccc(Cl)nc1 | 0% | 0% | 0% | 0% | 0% | 0% | 0% | 0% | 41% | 0% | 0% | 0%
CC(C)c1ccc(NC(=O)c2ccccc2OCc2ccc(Cl)nc2)cc1 | 0% | 61% | 100% | 61% | 41% | 100% | 41% | 41% | 100% | 100% | 81% | 41%
N#CCN(C(=O)c1ccccc1OCc1ccc(Cl)nc1)c1ccccc1 | 0% | 41% | 100% | 41% | 0% | 0% | 0% | 0% | 0% | 0% | 81% | 0%
O=C(Nc1ccc(I)cc1)c1ccccc1OCc1ccc(Cl)nc1 | 0% | 0% | 0% | 0% | 0% | 100% | 41% | 0% | 100% | 100% | 0% | 0%
CCN(CC)C(=O)c1ccccc1OCc1ccc(Cl)nc1 | 0% | 0% | 41% | 0% | 0% | 0% | 0% | 0% | 41% | 0% | 0% | 0%
O=C(c1ccccc1OCc1ccc(Cl)nc1)N1CCCCC1 | 0% | 0% | 41% | 0% | 0% | 41% | 0% | 0% | 41% | 0% | 0% | 0%
O=C(c1ccccc1OCc1ccc(Cl)nc1)N1CCOCC1 | 0% | 0% | 100% | 0% | 0% | 0% | 0% | 0% | 41% | 0% | 41% | 0%
CC(C)NC(=O)c1ccccc1OCc1ccc(Cl)nc1 | 0% | 0% | 41% | 0% | 0% | 100% | 41% | 0% | 100% | 100% | 41% | 0%
O=C(Nc1ccc(Br)cc1)c1ccccc1OCc1ccc(Cl)nc1 | 41% | 81% | 100% | 81% | 61% | 100% | 100% | 100% | 100% | 100% | 100% | 61%
O=C(Nc1ccc(C(F)(F)F)cc1)c1ccccc1OCc1ccc(Cl)nc1 | 81% | 100% | 100% | 100% | 61% | 100% | 100% | 100% | 100% | 100% | 100% | 100%
